Series [1] has as its system LPS-challenged mice. The series is described as follows: Acute lung inflammation mouse model (i.t. LPS), BALF neutrophils and cytokines. The series is classed as in vivo. Particulars: vs free DOX and DOX-ab-BSA NPs. As for the experimental part:
Mice were anesthetized, and placed in a supine position head up on a board tilted at 15°. Afterwards, 10 mg/kg of LPS in HBSS was intratracheally (i.t.) administrated to mice with a FMJ-250 High Pressure Syringe (Penn-Century, Wyndmoor, Pa.). Mice were held upright for 2 min after administration.
Mice were challenged with i.t. injection of LPS (10 mg/kg). […] At 20 h post-drug administration, the mice were anesthetized with i.v. injection of a mixture of ketamine and xylazine. The BALF was collected by inserting a needle into the upper trachea. 0.9 mL HBSS was infused into the lungs and carefully withdrawn to obtain BALF. This process was repeated three times. BALF was collected and centrifuged at 350 g for 10 min at 4° C. The supernatant was collected for ELISA analysis. Afterwards, the cells were re-suspended in 0.5 ml of HBSS. The total cell number was determined with a hemocytometer.
Flow cytometry was utilized to quantify neutrophils in BALF. In detail, neutrophils from BALF were washed with 1 mL of 5% BSA in HBSS and centrifuged at 350 g for 10 min at 4° C. for three times, which was finally re-suspended in 400 μL of 5% BSA in HBSS. 3 μL of Alexa Fluor-647-labeled anti-mouse LY-6G antibody was added and incubated for 20 min in the dark, followed by washing with 1 mL of 0.1% BSA in HBSS under centrifugation for three times. Samples were then re-suspended in 400 μL 0.1% BSA in HBSS and filtered by a 100 μm filter, and analyzed by flow cytometer (Accuri C6 flow cytometer, BD Biosciences, San Jose, Calif.).
BALF was collected and centrifuged at 350 g for 10 min as described above. Supernatants from BALF were harvested for ELISA analysis. Concentrations of TNF-α, IL-6 and IL-1β in supernatants were determined with commercial ELISA kits according to the manufacturer's instructions (Biolegend, San Diego, Calif.). The triplicate experiment was conducted.

Series [2] can be described thus: pH-triggered DOX release, UV-Vis of supernatants after 2 h incubation. It counts as physicochemical. As to the method: To confirm the pH-triggered drug release property, BSA NPs, DOX-ab-BSA NPs and DOX-hyd-BSA NPs were incubated in PBS at pH 7.4, 6.5 and 5.0 for 2 h, respectively. After centrifugation, the supernatants were collected to determine DOX concentrations using a UV-Vis spectrometer.

Series [3] concerns LPS-challenged mice. The series is described as follows: Therapeutic efficacy in sepsis mouse model (neutrophils, cytokines, MPO in blood, BALF, organs). The series is classed as in vivo. As for the experimental part: Adult CD-1 mice were i.p. administrated with LPS (50 mg/kg). 4 hours later, the mice were grouped randomly (10 mice per group) and i.v. injected with PBS, free DOX and DOX-hyd-BSA NPs (equal to 0.2 mg kg^−1 of free DOX), respectively. The healthy mice were used as […]. At predetermined time points (16 h and 72 h after LPS challenge), mouse BALF, blood and major organs were collected. Cell number and inflammatory factors (TNF-α, IL-6 and IL-1β) in BALF were determined by hemocytometer and ELISA, respectively as aforementioned. Blood was collected as described above. The plasma was harvested for ELISA assay after the blood was centrifuged at 1500 g for 20 min. Cell number was counted as above. The organs were homogenized with PBS (100 mg/mL) to obtain the pipettable homogenate for myeloperoxidase (MPO) activity and ELISA assay.

In series [4] the test system is differentiated HL-60 cells. As to the kind of experiment: Apoptosis analysis, Annexin V-FITC / 7AAD staining (flow cytometry, CLSM). The series is classed as cell-based, human. As to the method: To investigate the apoptosis of neutrophils induced by DOX, Annexin V-FITC and 7AAD were used to double stain differentiated HL-60 cells. […] The cells were re-suspended in a binding buffer for staining of Annexin V-FITC and 7AAD (emission at 650 nm) according to the manufacturer's protocol (Invitrogen). Stained cells were analyzed using a flow cytometer and imaged by a Nikon A1R^+ confocal laser scanning microscope.
For orientation: A flow cytometer gives signals particle by particle.

Series [5] concerns differentiated HL-60 cells (neutrophil-like cells). The series is described as follows: In vitro cytotoxicity, CCK-8 assay. The series is classed as cell-based, human. Particulars: 24 h, different concentrations of DOX. As to the method: Cytotoxic effects of BSA NPs on HL-60 cells were measured by CCK-8 assay. HL-60 cells were plated in 96-well plates (Costar, Corning, N.Y.) at 5,000-10,000 cells/well. After incubation for 24 h, the culture medium was removed and a complete medium with various concentrations of free DOX, BSA and DOX-conjugated BSA NPs was used to incubate cells for 24 h, respectively. 10 μL of the solution cell proliferation reagent (Promega, Madison, Wis.) per well was added. Then, the cell viability was measured by a Synergy Neo fluorescence plate reader (BioTek, Winooski, Vt.) at 490 nm.

A short description of series [6]: In vitro drug release profile (dialysis, 37 C). It counts as physicochemical. As to the method:
Release profiles of DOX from NPs were studied using dialysis method at 37° C.(33) Briefly, 3 mg of NPs was dispersed in 3 mL (Ve) PBS at different pH, and then was placed in a dialysis bag (MWCO 3500 Da). The dialysis bag was immersed in 47 mL PBS (pH 7.4, 6.5 or 5.0) in a beaker. The beaker was then placed in a 37° C. water bath and stirred at 110 rpm. The samples were drawn at desired time intervals and the drug concentration was measured using UV-Vis absorption. The experiments were carried out in triplicate at each pH value. The accumulative drug release percent (Er) was calculated based on equation (1).
where, mdrug represents the amount of DOX in NPs, V0 was the whole volume of release media (V0=50 mL), Ci represents the concentration of DOX in the ith sample.

[7] abbreviates: 0.2 mg/kg (DOX) i.v. 4 h after i.t. LPS.
The mark [8] stands for this setting: first 16 h after LPS challenge, vs PBS.

Regarding DOX-hyd-BSA NPs, in series [1] (0.2 mg/kg (DOX) i.v. 4 h after i.t. LPS 10 mg/kg), the “neutrophils in BALF” value is “surprisingly and dramatically shown to decrease compared to controls”. Moreover, in series [1] (setting [7]), the “IL-1β in BALF” value is “decreased”, the “IL-6 in BALF” value was “decreased” and the “TNF-α in BALF” value was “decreased”. Also, the “DOX absorption at 480 nm in supernatant” value in series [2] (pH 5.0 and 6.5, 2 h incubation in PBS) is “Absorption of DOX molecules at 480 nm was observed”. Also, the DOX in supernatant result in series [2] (pH 7.4, 2 h incubation in PBS) is reported as “did not observe DOX in the supernatant”. Further, the “inflammation in other organs (MPO, TNF-α, IL-6, IL-1β)” value in series [3] (16 h and 72 h post-LPS challenge, vs PBS) was “significantly decreased inflammation in other organs”. The “neutrophil number and cytokine contents” value in series [3] (72 h after LPS challenge) is recorded as “resumed to their levels as in healthy mice”. For the same substance, in series [3] (setting [8]), the “cytokines in blood and lung BALF” value was “decreased accordingly”; the “neutrophils in blood and lung BALF” value is given as “dramatically decreased”. In series [3] (neutrophil counts compared with healthy mice), the “neutrophil production in the bone marrow” value is “did not impair neutrophil production in the bone marrow”. Further, the “apoptotic cells by flow cytometry” value in series [4] (24 h, DOX 3 μg/mL) stood at 89%. In addition, in series [4] (24 h treatment), the “Annexin V-FITC / 7AAD staining by confocal microscopy” value was “contained staining of Annexin-V-FITC, and less staining of 7AAD”. In addition, in series [5], the “cytotoxicity (cell viability)” value was “cytotoxicity was similar for both free DOX and DOX-hyd-BSA NPs”. Further, in series [6] (pH 5.0, first 10 h), the “cumulative DOX release” value was determined as 80%. The “cumulative DOX release” value in series [6] (pH 5, in 30 h) is given as “completely released DOX”. In addition, in series [6] (pH 6.5, first 10 h), the “cumulative DOX release” value amounted to 60%.

Source of the values: US20220133761A1, “NEUTROPHIL APOPTOSIS INDUCED BY NANOPARTICLES FOR TREATING INFLAMMATORY DISEASES” (WASHINGTON STATE UNIVERSITY, priority 2020, published 2022).
